Reference: US10857150B2, “Use of sanglifehrin macrocyclic analogues as anticancer compounds” (NEUROVIVE PHARMACEUTICAL AB, priority 2016, dated 2020)

Tests used:
LIXC-003 = experiment: 7-day proliferation assay, Calcein AM staining; format: cell-based; settings: Homo sapiens, 168 h, Example 6, n 2
Method: (§1) The cells were seeded in a 96-well plate, test compound or DMSO was added and the plate was incubated for additional four days or 7 days (Calcein AM assay). Viable cell counts were determined after detachment by treatment with trypsin either by trypan blue exclusion, flow cytometry, indirectly by measuring ATP content by addition of an ATP measuring reagent (CellTiter Glo), or Calcein AM, prepared according to the instruction of the manufacturer directly.
(§2) XLfit software ((Fit model: Dose response one site/^F(x)[fit=(A+((B−A)/(1+((C/x)^D))))]) for curve fitting and IC50 calculation) was used for curve fitting and IC50 calculation.
(§3) In vitro evaluation of a sanglifehrin macrocyclic analogue (1) for anticancer activity against human hepatocyte cancer cell lines in comparison with the cyclophilin inhibitor alisporivir and the kinase inhibitor sorafenib in a 7-day proliferation assay. The cell numbers were determined by Calcein AM staining as described in the methods section. Data are from one single experiment or means of two independent experiments testing duplicate samples of 9 concentrations of each compound. All three compounds were included in each experiment.

LIXC-004 = experiment: 7-day proliferation assay, Calcein AM staining; format: cell-based; settings: Homo sapiens, 168 h, Example 6, n 2
Method: as §1, §2, §3

HepG2 [1] = experiment: 7-day proliferation assay, Calcein AM staining; format: cell-based; settings: Homo sapiens, 168 h, Example 6, n 2
Method: as §1, §2, §3

LIXC-012 = experiment: 7-day proliferation assay, Calcein AM staining; format: cell-based; settings: Homo sapiens, 168 h, Example 6, n 2
Method: as §1, §2, §3

LIXC-011 = experiment: 7-day proliferation assay, Calcein AM staining; format: cell-based; settings: Homo sapiens, 168 h, Example 6, n 1
Method: as §1, §2, §3

LIXC-066 = experiment: 7-day proliferation assay, Calcein AM staining; format: cell-based, human
Method: as §1, §2
as §3, with “NV556 (10)” for “the cyclophilin inhibitor alisporivir and the kinase inhibitor sorafenib in”, “one” for “one single”, “with each cell line” for “or means of two independent experiments”, “Both” for “All three”
as §3

LIXC-086 = experiment: 7-day proliferation assay, Calcein AM staining; format: cell-based, human
Method: as §1, §2
as §3, with “NV556 (10)” for “the cyclophilin inhibitor alisporivir and the kinase inhibitor sorafenib in”, “one” for “one single”, “with each cell line” for “or means of two independent experiments”, “Both” for “All three”
as §3

Hep3B2.1-7-Luc = experiment: 7-day proliferation assay, Calcein AM staining; format: cell-based, human
Method: as §1, §2
as §3, with “NV556 (10)” for “the cyclophilin inhibitor alisporivir and the kinase inhibitor sorafenib in”, “one” for “one single”, “with each cell line” for “or means of two independent experiments”, “Both” for “All three”
as §3

LIXC-006 = experiment: 7-day proliferation assay, Calcein AM staining; format: cell-based, human
Method: as §1, §2
as §3, with “NV556 (10)” for “the cyclophilin inhibitor alisporivir and the kinase inhibitor sorafenib in”, “one” for “one single”, “with each cell line” for “or means of two independent experiments”, “Both” for “All three”
as §3

HepG2 [2] = experiment: combination with sorafenib, 7-day proliferation assay (Calcein AM), isobologram; format: cell-based, human; settings: combination with sorafenib at different doses
Method: as §1
To test for potential synergistic activity with sorafenib, compound 1 (A) was added at a range of concentrations along with a range of concentrations of sorafenib (B) against a liver cancer cell line, HepG2 in a 7-day proliferation assay (Calcein AM assay, described in the methods section). Data are from one single experiment representative of two independent experiments testing duplicate samples. The data was plotted in a normalized isobologram (Chou and Martin. CompuSyn for Drug Combinations: PC Software and User's Guide: A Computer Program for Quantitation of Synergism and Antagonism in Drug Combinations, and the Determination of IC50 and ED50 and LD50 Values, ComboSyn Inc, Paramus, (NJ), 2005) and is shown in FIG. 7. Values at the lower left below the hypotenuse indicate synergism.

LIXC-002 = experiment: 7-day proliferation assay, Calcein AM staining; format: cell-based, human; settings: Example 5, one experiment
Method: as §1, §2
as §3, with “NV556 (10)” for “the cyclophilin inhibitor alisporivir and the kinase inhibitor sorafenib in”, “one” for “one single”, “with each cell line” for “or means of two independent experiments”, “Both” for “All three”

[3] = system: human hepatocyte cancer cell lines; experiment: 7-day proliferation assay, comparison of potency over the cell lines; format: cell-based
Method: as §1
as §3, with “NV556 (10)” for “the cyclophilin inhibitor alisporivir and the kinase inhibitor sorafenib in”, “one” for “one single”, “with each cell line” for “or means of two independent experiments”, “Both” for “All three”
as §3

RPMI 8226 = experiment: monolayer proliferation assay, human tumour cell line panel; format: cell-based; settings: means of two experiments, 3 nM-25 μM
Method: as §1
(§4) Percentage inhibition in the ATP test was calculated by the formula described below: Growth inhibition %: 100−100×(Experimental−Blank)/(DMSO−Blank)
as §2
(§5) In vitro evaluation of compounds for anticancer activity in a panel of human tumour cell lines in a monolayer proliferation assay were carried out at Shanghai Chempartner.
(§6) In vitro evaluation of a sanglifehrin macrocyclic analogue (NV556) for anticancer activity in a panel of 11 human tumour cell lines in a monolayer proliferation assay was carried out as described in the general methods above. Data are means from two independent experiments testing 10 concentrations (3 nM-25 μM) in duplicate.

HepG2 [4] = experiment: as above; format: cell-based; settings: means of two experiments, 3 nM-25 μM
Method: as §1, §4, §2, §5, §6

A549 = experiment: as above; format: cell-based; settings: means of two experiments, 3 nM-25 μM
Method: as §1, §4, §2, §5, §6

A375 = experiment: as above; format: cell-based; settings: means of two experiments, 10 concentrations 3 nM-25 μM
Method: as §1, §4, §2, §5, §6

PC-3 = experiment: as above; format: cell-based; settings: means of two experiments, 3 nM-25 μM
Method: as §1, §4, §2, §5, §6

PANC-1 = experiment: as above; format: cell-based; settings: means of two experiments, 3 nM-25 μM
Method: as §1, §4, §2, §5, §6

HCT 116 = experiment: as above; format: cell-based; settings: means of two experiments, 3 nM-25 μM
Method: as §1, §4, §2, §5, §6

MDA-MB-231 = experiment: as above; format: cell-based; settings: means of two experiments, 3 nM-25 μM
Method: as §1, §4, §2, §5, §6

SK-Hep-1 = experiment: as above; format: cell-based; settings: means of two experiments, 3 nM-25 μM
Method: as §1, §4, §2, §5, §6

HT-29 = experiment: as above; format: cell-based; settings: means of two experiments, 3 nM-25 μM
Method: as §1, §4, §2, §5, §6

Huh-7 = experiment: as above; format: cell-based; settings: means of two experiments, 3 nM-25 μM
Method: as §1, §4, §2, §5, §6

U251 = experiment: as above; format: cell-based; settings: means of two experiments, 3 nM-25 μM
Method: as §1, §4, §2, §5, §6

A2780 = experiment: as above; format: cell-based; settings: means of two experiments, 3 nM-25 μM
Method: as §1, §4, §2, §5, §6

[5] = system: SK-Hep-1 tumour cell line; experiment: combined anticancer activity, monolayer proliferation assay; format: cell-based, human; settings: over certain concentration ranges
Method: as §1
In vitro evaluation of the combined anticancer activity of a sanglifehrin macrocyclic analogue with the anticancer agents sorafenib or doxorubicin against the SK-Hep-1 tumour cell line in a monolayer proliferation assay was carried out as described in the general methods above.

[6] = Homo sapiens, 168 h, Example 6, n 1
[7] = Homo sapiens, 168 h, Example 6, n 2
[8] = Homo sapiens, 168 h, Example 5, one experiment
[9] = read-out: Concentration giving 50% of maximum effect

In the case of `C/C=C/C[C@@H](C)[C@@H](O)[C@H]1C(=O)N[C@@H](CC)C(=O)N(C)[C@H](C)C(=O)N(CC)[C@@H](C(C)C)C(=O)N[C@@H](C(C)C)C(=O)N(C)[C@@H](CC(C)C)C(=O)N[C@@H](C)C(=O)N[C@H](C)C(=O)N(C)[C@@H](CC(C)C)C(=O)N(C)[C@@H](CC(C)C)C(=O)N(C)[C@@H](C(C)C)C(=O)N1C` [Alisporivir, alisporivir], the IC50 (LIXC-003) is reported as 4730 nM, the IC50 (LIXC-004) is reported as 3810 nM and the IC50 (HepG2 [1]) is reported as 3130 nM. The IC50 (LIXC-012) was 3220 nM, the IC50 (LIXC-011) was 8710 nM and the IC50 (LIXC-066; [6]) was 1640 nM. The IC50 (LIXC-086; [6]) was 2250 nM, the IC50 (Hep3B2.1-7-Luc; [6]) was 2880 nM and the IC50 (LIXC-006; [7]) was 993 nM.
In the case of `CC(=O)CC[C@H]1C(=O)N[C@@H](C(C)C)C(=O)N[C@@H](Cc2cc(O)cc(F)c2)C(=O)N2CCCC(N2)C(=O)O[C@H](/C(C)=C/C=C/C(=O)OC(C)(C)C)C/C=C/C=C/[C@H](O)[C@H](C)[C@H]1O` (some centres unmarked) [Compound 1], the “growth inhibitory effect of simultaneous treatment” value (HepG2 [2]) is reported as “synergistic growth inhibitory effect”, the IC50 (LIXC-002; Homo sapiens, 168 h) is reported as under 3 nM and the IC50 (LIXC-003) is reported as 8 nM. The IC50 (LIXC-004) was 4 nM, the IC50 (HepG2 [1]) was 7 nM and the IC50 (LIXC-012) was 65 nM. For the same compound, the IC50 (LIXC-011) was 12 nM, the IC50 (LIXC-066; [8]) was 93 nM and the IC50 (LIXC-066; [6]) was 169 nM. For the same compound, the IC50 (LIXC-086; [8]) was 905 nM, the IC50 (LIXC-086; [6]) was 686 nM and the IC50 (Hep3B2.1-7-Luc; [8]) was 11 nM. The IC50 (Hep3B2.1-7-Luc; [6]) was 9 nM, the IC50 (LIXC-006; [8]) was 9 nM and the IC50 (LIXC-006; [7]) was 6 nM. The “potency relative to NV556 (10)” value ([3]; Example 5, all cases (5 cell lines)) was 3-10 fold, the “potency relative to alisporivir” value ([3]; Example 6, all cases (9 cell lines)) was 3-1000 fold and the “potency relative to sorafenib” value ([3]; Example 6, in 8/9 cases) was 3-600 fold.
With `CC(=O)CCC1C(=O)NC(C(C)C)C(=O)NC(Cc2cc(O)cc(F)c2)C(=O)N2CCCC(N2)C(=O)OC(C(C)=CC=CC(=O)N2CCCCO2)CC=CC=CC(O)C(C)C1O` (centres unmarked) [NV556] the IC50 (LIXC-002) was 39 nM, the “Maximum inhibition (%)” value (RPMI 8226) was 87.1% and the EC50 (RPMI 8226; [9]) was 200 nM. The “Maximum inhibition (%)” value (HepG2 [4]) was 80.6%, the EC50 (HepG2 [4]; [9]) was 100 nM and the “Maximum inhibition (%)” value (A549) was 45.2%. The EC50 (A549; [9]) was 100 nM, the “Maximum inhibition (%)” value (A375) was 87.6% and the EC50 (A375; [9]) was 2100 nM. For the same compound, the “Maximum inhibition (%)” value (PC-3) was 45.3%, the EC50 (PC-3; [9]) was 300 nM and the “Maximum inhibition (%)” value (PANC-1) was 51.0%. The EC50 (PANC-1; [9]) was 1300 nM, the “Maximum inhibition (%)” value (HCT 116) was 88.7% and the EC50 (HCT 116; [9]) was 100 nM. For the same compound, the “Maximum inhibition (%)” value (MDA-MB-231) was 49.9%, the EC50 (MDA-MB-231; [9]) was 500 nM and the “Maximum inhibition (%)” value (SK-Hep-1) was 94.6%. The EC50 (SK-Hep-1; [9]) was 100 nM, the “Maximum inhibition (%)” value (HT-29) was 56.8% and the “Maximum inhibition (%)” value (Huh-7) was 22.4%. For the same compound, the EC50 (Huh-7; [9]) was 30 nM, the “Maximum inhibition (%)” value (U251) was 62.0% and the EC50 (U251; [9]) was 16900 nM. The “Maximum inhibition (%)” value (A2780) was 83.7%, the EC50 (A2780; [9]) was 100 nM and the “reduction in cell numbers, combination versus single compounds” value ([5]; combination with doxorubicin) was “stronger reduction in cell numbers than either compound alone”. For the same compound, the “reduction in cell numbers, combination versus single compounds” value ([5]; combination with sorafenib) was “stronger reduction in cell numbers than either compound alone”, the IC50 (LIXC-066; Example 5, one experiment) was 244 nM and the IC50 (LIXC-086; Example 5, one experiment) was 9490 nM. For the same compound, the IC50 (Hep3B2.1-7-Luc; Example 5, one experiment) was 54 nM and the IC50 (LIXC-006; Example 5, one experiment) was 62 nM.
